This data set can be described thus: Dynamic vapor sorption (moisture sorption/desorption). The following applies: for solid form after the DVS experiment (form stability): post-DVS analysis, 5% to 95% RH cycle; for water absorbed (dynamic vapor sorption): up to 95% RH at 25° C. In kind it is physicochemical. How it is done:
Moisture sorption/desorption data were collected on a VTI SGA-100 Vapor Sorption Analyzer. NaCl and PVP were used as calibration standards. Samples were not dried prior to analysis. Sorption and desorption data were collected over a range from 5% to 95% RH at 10% RH increments under a nitrogen purge. The equilibrium criterion used for analysis was less than 0.0100% weight change in 5 minutes with a maximum equilibration time of 3 hours. Weight percentages reported in the data section are relative to the total sample mass introduced prior to equilibration at 5% RH as measured on the instrument.

As to `CCCC[C@](C)(CO)Nc1nc(N)nc2cc(F)cnc12` [Compound I Form I, (R)-2-((2-amino-7-fluoropyrido[3,2-d]pyrimidin-4-yl)amino)-2-methylhexan-1-ol], the “solid form after the DVS experiment (form stability)” value (shortened to “solid form after the DVS experiment”) is on record as “not have changed forms” and the “water absorbed (dynamic vapor sorption)” value is listed as “about 0.89%”.
Regarding `CCCC[C@](C)(CO)Nc1nc(N)nc2cc(F)cnc12.O=C(O)/C=C/C(=O)O` [Compound I Fumaric Acid, (R)-2-((2-amino-7-fluoropyrido[3,2-d]pyrimidin-4-yl)amino)-2-methylhexan-1-ol fumaric acid], the “solid form after the DVS experiment” value is given as “not have changed forms” and the “water absorbed (dynamic vapor sorption)” value is “about 2.3%”.
Turning to `CCCC[C@](C)(CO)Nc1nc(N)nc2cc(F)cnc12.Cl` [Compound I HCl Form I, (R)-2-((2-amino-7-fluoropyrido[3,2-d]pyrimidin-4-yl)amino)-2-methylhexan-1-ol hydrochloride], the “hygroscopicity by dynamic vapor sorption” value (5% to 95% RH) is listed as “hygroscopic”. Further, for the setting “below 65% RH down to 5% RH”, the “further weight loss, desorption curve” value was “No further weight % loss was observed”. The “weight gain, sorption cycle” value is listed as “approximately 0.6%” (between 5% and 55% RH); “approximately 28.1%” (between 65% RH and 95% RH). For the same molecule, the “weight loss, desorption curve” value (between 85% and 65% RH) worked out at 1.8%; the “weight loss, desorption curve” value (from 95% to 85% RH) was “approximately 11.2%”. Moreover, where the note is “hydrochloride”, the “solid form after the DVS experiment” value was “composed of a new crystalline material, designated Compound I Hydrochloride Form II”.
Regarding `CCCC[C@](C)(CO)Nc1nc(N)nc2cc(F)cnc12.Cl` [Compound I HCl Form II, (R)-2-((2-amino-7-fluoropyrido[3,2-d]pyrimidin-4-yl)amino)-2-methylhexan-1-ol hydrochloride], under “from 5% to 95% RH”, the “weight gain, sorption cycle” value is given as “approximately 19.8%”. Moreover, where the note is “hydrochloride”, the “solid form after the DVS experiment” value is given as “not have changed forms”.
`CCCC[C@](C)(CO)Nc1nc(N)nc2cc(F)cnc12.O=C(O)/C=C\C(=O)O` [Compound I Maleic Acid, (R)-2-((2-amino-7-fluoropyrido[3,2-d]pyrimidin-4-yl)amino)-2-methylhexan-1-ol maleic acid]: the “solid form after the DVS experiment” value is given as “not have changed forms” and the “water absorbed (dynamic vapor sorption)” value is reported as “about 0.11%”.
In the same order, the values of `CCCC[C@](C)(CO)Nc1nc(N)nc2cc(F)cnc12.CS(=O)(=O)O` [Compound I Methanesulfonic Acid, (R)-2-((2-amino-7-fluoropyrido[3,2-d]pyrimidin-4-yl)amino)-2-methylhexan-1-ol methanesulfonic acid] are “not have changed forms” and “about 38%”.
For `CCCC[C@](C)(CO)Nc1nc(N)nc2cc(F)cnc12.O=C(O)C(O)C(O)C(=O)O` [Compound I Tartaric Acid, (R)-2-((2-amino-7-fluoropyrido[3,2-d]pyrimidin-4-yl)amino)-2-methylhexan-1-ol tartaric acid], in that order: “not have changed forms” and “about 1.5%”.

The values are drawn from patent US11583531B2, “Solid forms of a toll-like receptor modulator” (Gilead Sciences, Inc., priority 2019, dated 2023).
